According to patent publication US4973675A, “Hybrid nitrosoureidoanthracyclines having antitumor activity” (University of Tennessee Research Center, priority 1989, dated 1990):
“Also recorded” adds a separate entry of the source. Read-outs that look alike come from different tables or passages of the source.

Columns and labels:
[1] = tested on: murine L1210 lymphocytes; assay: DNA alkaline elution filter assay, DNA damage in murine L1210 lymphocytes; format: cell-based; details: L1210
Source text: (§1) By means of the DNA alkaline elution filter assay technique, it is possible to assess the nature of damage induced in DNA by exposure to drugs and other agents. Depending on the assay conditions, DNA lesions can be quantified as direct strand breaks, DNA-DNA interstrand crosslinks, and protein-associated strand breaks and crosslinks. The action of akylating-type drugs on DNA typically results in a predominant formation of direct DNA single-strand breaks and DNA-DNA crosslinks. DNA intercalating agents show a preponderance of protein-associated DNA damage, detectable as protein-associated single-strand breaks and DNA-protein crosslinks.
(§2) The nature of nitrosoureidoanthracycline-induced DNA damage in murine L1210 and human CLL lymphocytes was assessed by means of the alkaline elution filter technique. Murine L1210 leukemic lymphocytes, like P388/S lymphocytes, are known to contain high levels of topoisomerase II.
(§3) *All concentrations 1 μM, 1hr incubation. Each entry represents the
(§4) mean of at least two experiments, frequency per 10^6 nucleotides;
(§5) statistically significant increase above background underlined. DB, direc
(§6) (nonenzymatic) DNA breaks; PAB, proteinassociated DNA cleavage; DDCL,
(§7) interstrand DNA crosslinks; DPCL, DNAprotein crosslinks.

[2] = tested on: human CLL lymphocytes; assay: DNA alkaline elution filter assay, DNA damage in human CLL lymphocytes; format: cell-based; details: for DD-CL, interstrand DNA crosslinks / DP-CL, DNA-protein crosslinks: CLL, 1 μM, 1 hr incubation
Source text: as §1, §2, §3, §4, §5, §6, §7
B-cell type lymphocytes freshly obtained from patients with chronic lymphocytic leukemia (CLL) show undetectable levels of topoisomerase II.

[3] = tested on: plasmid PC15 supercoiled DNA; assay: DNA unwinding assay (interference with DNA topoisomerase I-mediated unwinding; drug-DNA intercalation); format: biochemical
Source text: DNA unwinding assays were used to measure the ability of a test drug to interfere with DNA topoisomerase I-mediated unwinding of plasmid PC15 supercoiled DNA. DNA topoisomerase I controls the topology of double-stranded DNA and is itself not inhibited by DNA intercalating agents. Rather, intercalating agents cause distortion of the torsional angle between adjacent DNA strand components and thereby interfere with the ability of topoisomerase I to convert supercoiled DNA into relaxed forms. Accordingly, this assay is taken as the definitive test of drug-DNA intercalation.
Drugs were tested at 4 concentrations over a 125-fold concentration range. […] These compounds are 2-chloroethylurea derivatives of daunorubicin and adriamycin, respectively (i.e. not nitrosoureas, but chemical intermediates from which the nitrosoureas were derived).

[4] = tested on: DNA topoisomerase II; assay: Drug-stimulated topoisomerase II-mediated DNA cleavage assay (end-labeled PMC41 DNA); format: biochemical; details: for enhancement of topoisomerase II-mediated DNA cleavage: 625-fold concentration range; for DNA topoisomerase II-inhibitory and alkylating activity: summary of biochemical studies
Source text: FIGS. 5A and 5B are a photographic reproduction of the results of drug-stimulated topoisomerase II-mediated DNA cleavage assays performed on various compounds, including compounds of the present invention.
DNA intercalation is a necessary but not a sufficient requirement for DNA topoisomerase II-mediated DNA cleavage. Accordingly, determination of drug-induced enzyme inhibition requires direct assay with isolated topoisomerase II. These assays involve determination of drug-enhanced topoisomerase II-mediated cleavage of PMC41 DNA appropriately end-labeled with [α-^32 P]dATP. As better seen in FIG. 5B, lane B, purified topoisomerase II, under the assay conditions, causes fragmentation of the DNA (background cleavage), as indicated by the radioautographic appearance of bands of cleaved DNA having differing mass values.

[5] = Chemical stability / autodegradation to oxazolidinone (HPLC); format: physicochemical
Source text: FIGS. 2A and 2B are reproductions of HPLC printouts showing autodegration of N-2-chloroethylnitrosoureidoadriamycin.
Again, depending upon the specific compound, similar results were seen when compounds were exposed to aqueous media or even maintained in the dry state in a vacuum desiccator. Of importance, all daunorubicin urea and nitrosourea products, regardless of the specific alkyl or aryl substituent, afforded the same anthracycline degradation product; similarly, all adriamycin ureas and nitrosoureas afforded the same other degradation material.
Epirubicin (4'-epiadriamycin) is an example of such a starting material.

[6] = tested on: murine L1210 leukemia cells; assay: Clonogenic assay with cultured murine L1210 leukemia cells, 1 h drug exposure (LD90); format: cell-based; details: for clonogenic cell kill: L1210, 1 hour exposure; for IC90: Mus musculus, L1210, 1 hr drug exposure, read-out: L1210 LD90 (dose killing 90% of clonogens)
Experimental: (§8) Culture and bioassay conditions were as described in Cancer Chemotherapy Pharmacology 20:277 (1987) "Comparative Effects of Adriamycin and DNA-nonbinding Analogues on DNA, RNA, and Protein Synthesis in Vitro", Israel et al., except that cell counts were determined by hemocytometer rather than by automated cell counting.
+Dose killing 90% of clonogens, 1hr. drug exposure.

[7] = tested on: murine P388 leukemia; assay: In vivo antitumor activity vs. murine P388 (P388/S) leukemia; set-up: species or system murine (B6D2F1 males); details: for Long-term survivors / Median increase in lifespan / Median survival / Net mean percent weight change, day 7 / Range of deaths (dying animals): ip
Source text: Initial studies utilized a multiple dose schedule, with drug administered once daily on days 1, 2, 3 and 4. […] The marked activity of AD 312 in this system has been confirmed in multiple separate experiments.
Additional studies were done with AD 312 vs. murine P388/S under more demanding conditions of assay.
^a Summary results of 4 separate experiments. B6D2F1 males; 1 ×

[8] = tested on: human CEM leukemic lymphocytes; assay: Growth inhibition of human CEM leukemic lymphocyte suspension cultures, 48 h continuous drug exposure (ID50); format: cell-based; details: for growth inhibitory activity: CEM in vitro; for IC50: Homo sapiens, Lymphocyte, CEM, 48 hr continuous drug exposure (Table 2), read-out: ID50 (the source's name)
Experimental: as §8

[9] = Solubility in water or saline; format: physicochemical
Experimental: Accordingly, the compounds are formulated for administration by dissolving the compound in a pharmaceutically acceptable non-toxic carrier which contains a surfactant. The present inventors employ a formulation of 10% Cremaphor EL (a polyhydroxylated castor oil derivative) available from BASF Chemicals, 10% ethanol and 80% aqueous media (sterile water or saline solution). That quantity of the compound desired for establishing an effective dose is dissolved in a 1:1 mixture of Cremaphor EL and ethanol. Thereafter, sufficient aqueous medium is added with stirring to develop a final formulation containing 80% aqueous medium. This formulation is administered parenterally.

## COc1cccc2c1C(=O)c1c(O)c3c(c(O)c1C2=O)C[C@@](O)(C(=O)CO)C[C@@H]3O[C@H]1C[C@H](NC(=O)N(CCCl)N=O)[C@H](O)[C@H](C)O1 [AD 347, 2-chloroethylnitrosoureidoadriamycin]
[1]
  pattern of DNA damage: pattern of DNA damage consistent with both topoisomerase II inhibition and DNA-alkylatingaction
[2]; CLL B-cell lymphocytes
  pattern of DNA damage: some level of protein-associated DNA damage in these cells, but also affords significant levels of alkylation-type damage, seen as direct strand breaks and, with increasing time, DNA interstrand crosslinks
[2]; 0 hr after treatment
  DD-CL, interstrand DNA crosslinks: -0.18 frequency per 10^6 nucleotides
  DP-CL, DNA-protein crosslinks: 0.16 frequency per 10^6 nucleotides
[2]; 1 hr after treatment
  DD-CL, interstrand DNA crosslinks: -0.04 frequency per 10^6 nucleotides
  DP-CL, DNA-protein crosslinks: 0.17 frequency per 10^6 nucleotides
[2]; 3 hr after treatment
  DP-CL, DNA-protein crosslinks: 0.19 frequency per 10^6 nucleotides
[3]; 0 = no intercalation, 9 = very strong intercalation
  relative strength of drug-DNA intercalation (arbitrary scale): 8
[3]; 4 concentrations, 125-fold range
  interference with topoisomerase I-mediated conversion of supercoiled DNA / intercalation: the ability of these compounds to intercalate, a prerequisite for topoisomerase II inhibition, is clearly established
[4]
  enhancement of topoisomerase II-mediated DNA cleavage: no saturation of background cleavage
  DNA topoisomerase II-inhibitory and alkylating activity: clearly establish the DNA topoisomerase II-inhibitory activity and alkylating activity
[5]; HPLC, chloroform-methanol, overnight in the cold where stated
  autodegradation: a second signal was clearly evident
[6]
  clonogenic cell kill: essentially equipotent
  IC90: 0.58 µM
[7]; P388/S, 16.0 mg/kg/day×4
  increase in life span: > 500%
  survival at 60 days: 57%
[7]; 2.0 mg/kg qd 1-4 (Table 7)
  Long-term survivors: 0/7
  Median increase in lifespan: +70%
  Median survival: 17 days
  Net mean percent weight change, day 7: +8%
  Range of deaths (dying animals): 16 to 18 days
[7]; 4.0 mg/kg qd 1-4 (Table 7)
  Long-term survivors: 0/7
  Median increase in lifespan: +90%
  Median survival: 19 days
  Net mean percent weight change, day 7: +2%
  Range of deaths (dying animals): 18 to 21 days
[7]; 8.0 mg/kg qd 1-4
  Long-term survivors: 0/7
  Median increase in lifespan: +120%
  Median survival: 22 days
  Net mean percent weight change, day 7: +2%
  Range of deaths (dying animals): 19 to 24 days
[7]; 12.0 mg/kg qd 1-4
  Median increase in lifespan: +160%
  Median survival: 26 days
  Net mean percent weight change, day 7: +2%
  Range of deaths (dying animals): 22 to 37 days
[7]; 12.0 mg/kg qd 1-4, sacrifice day 60
  Long-term survivors: 2/7
[7]; 16.0 mg/kg qd 1-4
  Median increase in lifespan: > +500%
  Net mean percent weight change, day 7: -3%
  Range of deaths (dying animals): 26 to 31 days
[7]; 16.0 mg/kg qd 1-4, sacrifice day 60
  Long-term survivors: 4/7
[8]
  potency compared to adriamycin (more potent): 10 fold
  growth inhibitory activity: almost identical in vitro biological properties; also recorded: moderate to marked growth inhibitory activity
  IC50: 0.005 µM

## COc1cccc2c1C(=O)c1c(O)c3c(c(O)c1C2=O)C[C@@](O)(C(=O)CO)C[C@@H]3O[C@H]1C[C@H](NC(=O)N(CCCl)N=O)[C@@H](O)[C@H](C)O1 [AD 392, 2-chloroethylnitrosoureidoepirubicin]
[1]
  pattern of DNA damage: pattern of DNA damage consistent with both topoisomerase II inhibition and DNA-alkylatingaction
[9]; water or saline solution
  solubility: essentially insoluble in water or saline solution
[9]; water, of the order of, read-out: solubility in water
  solubility: < 0.025 mg/mL
[4]
  enhancement of topoisomerase II-mediated DNA cleavage: no saturation of background cleavage
  DNA topoisomerase II-inhibitory and alkylating activity: clearly establish the DNA topoisomerase II-inhibitory activity and alkylating activity
[5]; relative to adriamycin-derived products
  chemical stability / tendency to decompose to oxazolidinone: improved chemical stability
[6]
  clonogenic cell kill: essentially equipotent
  IC90: 0.53 µM
[8]
  potency compared to adriamycin (more potent): 10 fold
  growth inhibitory activity: almost identical in vitro biological properties; also recorded: moderate to marked growth inhibitory activity
  IC50: 0.005 µM
